What was measured:
Assay type in all cases: in vivo
[1] = system: brown planthopper (Nilaparvata lugens); experiment: Nilaparvata lugens spray test; settings: 96 h, after 4 days, rice plants; for mortality at 100 g/ha: application rate 100 g/ha; for mortality at 500 g/ha: application rate 500 g/ha
Protocol: Nilaparvata lugens—Spray Test
To produce a suitable preparation of active compound, 1 part by weight of active compound is mixed with the stated amount of solvents and is diluted with water, containing an emulsifier concentration of 1000 ppm, to the desired concentration. Further test concentrations are prepared by dilution with emulsifier containing water.
Rice plants (Oryza sativa) are sprayed with a preparation of the active ingredient of the desired concentration and the plants are infested with the brown planthopper (Nilaparvata lugens).
After 4 days mortality in % is determined. 100% means all planthoppers have been killed and 0% means none of the planthoppers have been killed.

[2] = system: green peach aphid (Myzus persicae); experiment: Myzus persicae oral test; settings: 120 h, read-out: activity (mortality)
Procedure, shortened: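 Compound was dissolved at 1 part by weight in 100 parts acetone, then diluted with water to test concentration and combined with IPL41 insect medium (33%+15% sugar). A mixed aphid population fed on this through a parafilm seal, and mortality (%) was scored after 5 days.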

[3] = system: larvae of the banded cucumber beetle (Diabrotica balteata); experiment: Diabrotica balteata spray test; settings: 168 h, application rate 100 g/ha (=32 μg/well), after 7 days, wheat seeds, read-out: activity (efficacy: seedlings grown)
Procedure, shortened: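 Wheat seeds germinated 1 day on agar were sprayed with compound diluted in water with 1000 ppm emulsifier, then infested with 10-20 Diabrotica balteata larvae. Efficacy in % scored after 7 days: 100% = seedlings grown as untreated, uninfected control; 0% = no seedlings grown.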

[4] = system: adult brown dog ticks (Rhipicephalus sanguineus); experiment: Rhipicephalus sanguineus in-vitro contact test, adult brown dog ticks; settings: application rate 5 μg/cm^2 (=500 g/ha), after 48 hours, read-out: activity (efficacy: ticks dead or moribund)
Procedure, shortened: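 Efficacy (%) reflects the fraction of adult ticks dead or moribund after 48 h of contact with a dried acetone film on tube walls at 5 μg/cm^2 (from 900 ppm). Moribund status was assessed by inability to climb away from heat at 45-50° C.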

[5] = system: adult flies Musca domestica strain WHO-N; experiment: Musca domestica test (MUSCDO surface treatment & contact assay); settings: 24 hours after contact, read-out: efficacy (mortality); for mortality at 20 mg/m2: surface concentration 20 mg/m^2, exposure 30 minutes; for mortality at 4 mg/m2: surface concentration 4 mg/m^2, exposure 30 minutes
Protocol: Musca domestica Test (MUSCDO Surface Treatment & Contact Assay)
Solvent: Aceton+2000 ppm rapeseed oil methyl ester (RME)
In order to produce a sufficient, active ingredient containing solution it is necessary to solve the test compound in the solvent-mix (acetone at 2 mg/ml/RME 2000 ppm). This solution is pipetted onto a glazed tile and after evaporation of the acetone, adult flies of the species Musca domestica strain WHO-N are placed onto the dried surface. The exposure time is 30 minutes.
Mortality in percent (%) is determined 24 hours after contact of the insects to the treated surface. 100% mortality means that all tested insects are dead, whereas 0% means that no insect died.

[6] = system: adult cat fleas (Ctenocephalides felis); experiment: Ctenocephalides felis in-vitro contact test, adult cat flea; settings: application rate 5 μg/cm^2 (=500 g/ha), after 48 hours, read-out: activity (efficacy: fleas dead or moribund)
Procedure, shortened: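 Acetone solutions of compound were coated onto inner walls of glass tubes (900 ppm giving 5 μg/cm^2) and dried; 5-10 adult C. felis were then held 48 h at room temperature. Efficacy = % fleas dead or moribund, judged by inability to escape a 45-50° C heating plate within 5 min.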

[7] = system: Rhipicephalus (Boophilus) microplus larvae (strain Parkhurst, resistant against synthetic pyrethroids); experiment: Rhipicephalus (Boophilus) microplus in-vitro contact test, larval cattle tick; settings: after 48 hours, read-out: activity (efficacy: larvae dead or moribund); for pest or weed control at 1 µg/cm2, 100 g/ha: application rate 1 μg/cm^2 (=100 g/ha); for pest or weed control at 5 µg/cm2, 500 g/ha: application rate 5 μg/cm^2 (=500 g/ha)
Procedure, shortened: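 Acetone solutions were coated onto glass tube walls, giving 5 μg/cm^2 at 900 ppm. Once dry, 20–50 pyrethroid-resistant Parkhurst larvae were added per tube and held 48 h at 27 °C and 85% RH. Efficacy was scored by negative geotaxis as the percentage of dead or moribund larvae.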

[8] = system: larvae of the southern green stink bug (Nezara viridula); experiment: Nezara viridula spray test; settings: 96 h, after 4 days, barley plants; for mortality at 500 g/ha: application rate 500 g/ha, read-out: activity (mortality); for mortality at 100 g/ha: application rate 100 g/ha
Procedure, shortened: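 Barley plants sprayed with the active compound in emulsifier-containing water, then infested with stink bug larvae. Mortality scored in % after 4 days, with 100% meaning all insects killed.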

[9] = system: fall armyworm larvae (Spodoptera frugiperda); experiment: Spodoptera frugiperda spray test; settings: 168 h, application rate 100 g/ha, after 7 days, maize leaf sections
Procedure, shortened: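 Caterpillars are placed on sprayed, dried maize leaf sections. Sprays contain compound diluted in water with emulsifier at 1000 ppm; mortality in % is determined 7 days later.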

[10] = system: adult mosquitoes Aedes aegypti strain MONHEIM; experiment: Aedes aegypti test (AEDSAE surface treatment & contact assay); settings: 24 hours after contact, read-out: efficacy (mortality); for mortality at 20 mg/m2: surface concentration 20 mg/m^2, exposure 30 minutes
Procedure, shortened: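 Compound in acetone (2 mg/ml) with 2000 ppm RME dried onto glazed tile; adults exposed to the treated surface for 30 min. Percent mortality scored 24 h after contact.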

[11] = system: green peach aphid (Myzus persicae); experiment: Myzus persicae spray test; settings: foliar, 120 h, after 5 days, Chinese cabbage leaf disks; for mortality at 100 g/ha: application rate 100 g/ha, read-out: activity (mortality)
Procedure, shortened: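 Chinese cabbage leaf disks infested with all aphid instars were sprayed with compound diluted in water containing emulsifier (1000 ppm). Mortality (%) was scored after 5 days, 100% meaning all aphids killed.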

[12] = system: adult unfed cat fleas (Ctenocephalides felis); experiment: Ctenocephalides felis oral test; settings: 48 h, read-out: activity (mortality)
Protocol: Ctenocephalides felis—Oral Test
Solvent: dimethyl sulfoxide
To produce a suitable preparation of active compound, 10 mg of active compound are dissolved in 0.5 mL solvent, and the concentrate is diluted with citrated cattle blood to the desired concentration.
Approximately 20 adult unfed cat fleas (Ctenocephalides felis) are placed in a flea chamber whose top and bottom is covered with gauze. A chamber whose bottom is sealed with parafilm, is filled with the blood-compound solution and placed on top of the flea chamber, so that the fleas can suck the blood. The blood chamber is heated to 37° C. whereas the flea chamber is kept at room temperature.
After 2 days mortality in % is determined. 100% means all the fleas have been killed; 0% means none of the fleas have been killed.

[13] = system: adult engorged female ticks (Rhipicephalus microplus); experiment: Rhipicephalus (Boophilus) microplus injection test; settings: 168 h, application rate 4 μg/tick, egg deposition after 7 days, read-out: activity (efficacy: infertile eggs)
Procedure, shortened: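 Efficacy is scored from egg fertility, with 100% meaning every egg infertile and 0% every egg fertile. Five engorged females per test received 1 μL DMSO solution abdominally. Eggs of unclear fertility were kept until hatching, about 42 days.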

Structure (SMILES)	mortality at 100 g/ha [1]	mortality at 4 ppm [2]	pest or weed control at 32 µg/disc, 100 g/ha [3]	mortality at 500 g/ha [1]	pest or weed control at 5 µg/cm2, 500 g/ha [4]	mortality at 20 mg/m2 [5]	pest or weed control at 5 µg/cm2 [6]	pest or weed control at 1 µg/cm2, 100 g/ha [7]	pest or weed control at 5 µg/cm2, 500 g/ha [7]	mortality at 500 g/ha [8]	mortality at 100 g/ha [9]	mortality at 4 mg/m2 ([10]; surface concentration 4 mg/m^2, exposure 30 minutes)	mortality at 20 mg/m2 [10]	mortality at 100 g/ha [8]	mortality at 100 g/ha [11]	mortality at 100 ppm [12]	mortality at 4 mg/m2 [5]	pest or weed control at 0.004 mg [13]	mortality at 500 g/ha ([11]; application rate 500 g/ha)
C[C@H](NC(=O)c1cc(Cl)cc(C(F)(F)F)c1)c1ncnn1-c1ccc(N2CCCC2=O)cn1 [Example I-54]	100%	100%																	
C[C@H](NC(=O)c1cc(C(F)(F)F)cc(C(F)(F)F)c1)c1ncnn1-c1ccc(C(=O)N2CC(C)(C)OC(C)(C)C2)cn1 [Example I-77]			100%	100%	80%	80 to 100%	100%	100%	100%	100%	100%								
Cc1nc([C@H](C)NC(=O)c2cc(C(F)(F)F)cc(C(F)(F)F)c2)n(-c2ccc(C(=O)N3CC(C)(C)OC(C)(C)C3)cn2)n1 [Example I-78]				100%	100%			100%	100%	100%	100%								
C[C@H](NC(=O)c1cc(C(F)(F)F)cc(C(F)(F)F)c1)c1ncnn1-c1ccc(C(=O)N2CC(=O)NC(=O)C2)cn1 [Example I-80]				90%						100%									
C[C@H](NC(=O)c1cc(C(F)(F)F)cc(S(C)(=O)=O)c1)c1ncnn1-c1ccc(C(=O)N2CCOCC2)cn1 [Example I-102]	90%	100%	100%				80%				100%	80 to 100%	80 to 100%	100%	90%				
Cc1nc([C@H](C)NC(=O)c2cc(OC(F)(F)F)cc(C3CC3)c2)n(-c2ccc(C(=O)N3C[C@@H](C)O[C@@H](C)C3)cn2)n1 [Example I-115]		100%	80%		100%	80 to 100%	100%	90%	90%						90%	100%	80 to 100%	100%	
C[C@H](NC(=O)c1cc(Cl)cc(S(C)(=O)=O)c1)c1ncnn1-c1ccc(C(=O)N2C[C@H](C)O[C@@H](C)C2)cn1 [Example I-122]		100%		90%			80%			100%				90%					90%
CCc1nc([C@H](C)NC(=O)c2cc(C(F)(F)F)cc(C(F)(F)F)c2)n(-c2ccc(C(=O)N3C[C@@H](C)O[C@@H](C)C3)cn2)n1 [Example I-130]			100%	100%	100%	80 to 100%	100%	100%	100%	100%	100%				90%		80 to 100%		
CCc1nc([C@H](C)NC(=O)c2cc(C(F)(F)F)cc(C(F)(F)F)c2)n(-c2ccc(C(=O)N3CCOCC3)cn2)n1 [Example I-131]			100%	100%	100%	80 to 100%	100%	100%	100%	100%	100%		80 to 100%		90%				
CCc1nc([C@H](C)NC(=O)c2cc(Br)cc(OC(F)(F)F)c2)n(-c2ccc(C(=O)N3CCOCC3)cn2)n1 [Example I-134]			100%	100%						100%	100%				90%				
Cc1nc([C@H](C)NC(=O)c2cc(C(F)(F)F)cc(C(F)(F)F)c2)n(-c2cnc(C(=O)N3C[C@@H](C)O[C@@H](C)C3)cn2)n1 [Example I-138]			100%	100%	100%	80 to 100%	100%	100%	100%	100%	100%				90%				
C[C@@H]1CN(C(=O)c2cnc(-n3ncnc3[C@H](C)NC(=O)c3cc(OC(F)(F)F)cc(S(C)(=O)=O)c3)nc2)C[C@H](C)O1 [Example I-145]			100%	100%															
C[C@H](NC(=O)c1cc(C(F)(F)F)cc(C(F)(F)F)c1)c1ncnn1-c1ncc(C(=O)N2CCCC2)cn1 [Example I-147]			100%	90%							100%				100%				

From patent US20230058623A1, “NOVEL HETEROARYL-TRIAZOLE COMPOUNDS AS PESTICIDES” (Bayer Aktiengesellschaft, priority 2019, published 2023)
